Experimental data taken from US20070128217A1 (priority 2003, published 2007).

Legend:
[1] = system: recombinant human anti-SARS-CoV antibody 03-018; type: binding; parameters: Binding of antibody 03-018 to linear peptides of the N protein of SARS-CoV Urbani / Binding of antibody 03-018 to looped/cyclic peptides of the N protein of SARS-CoV Urbani: unit not given here
[2] = system: rabbit serum obtained by immunizing a rabbit with the SARS-CoV strain Frankfurt 1; type: binding; parameters: Binding of a rabbit serum to linear peptides / Binding of a rabbit serum to looped peptides / Rabbit serum linear peptides / Rabbit serum looped peptides / Binding of a rabbit serum to linear peptides of protein N of SARS-CoV Urbani (Rabbit serum linear peptides) / Binding of a rabbit serum to looped/cyclic peptides of protein N of SARS-CoV Urbani (Rabbit serum looped peptides): unit not given here
[3] = system: control sera (pooled serum of ten healthy LUMC hospital workers; commercial negative donor pooled serum from the Dutch bloodbank); type: binding, human; parameters: Binding of Control serum LUMC to linear peptides / Binding of Control serum Blood-bank to linear peptides / Binding of Control serum LUMC to looped peptides / Binding of Control Serum Blood-Bank to Looped peptides / Binding of Control serum LUMC to linear peptides of the protein M of SARS-CoV Urbani / Binding of Control serum Blood-bank to linear peptides of the protein M of SARS-CoV Urbani / Binding of Control serum LUMC to looped peptides of the protein M of SARS-CoV Urbani / Binding of Control Serum Blood-Bank to Looped peptides of the protein M of SARS-CoV Urbani: unit not given here
[4] = system: antibodies in sera from SARS patients (sera 1a, 1b, 2, 6, 37, 62, London, SARS-yellow, SARS-green); type: binding, human; parameters: Binding of serum 6 to linear peptides of protein X1 of SARS-CoV Urbani / Binding of serum 37 to linear peptides of protein X1 of SARS-CoV Urbani / Binding of serum 6 to looped/cyclic peptide (PEPSCAN-ELISA) / Binding of serum 37 to looped/cyclic peptide (PEPSCAN-ELISA) / Binding of serum 37 to looped/cyclic peptides of protein X1 of SARS-CoV Urbani / Binding of serum 6 to linear peptides of protein X2 / Binding of serum 37 to linear peptides of protein X2 / Binding of serum 37 to looped/cyclic peptides of protein X2 of SARS-CoV Urbani / Binding of serum 6 to linear peptides of protein M of SARS-CoV Urbani / Binding of serum 37 to linear peptides of protein M of SARS-CoV Urbani / Binding of serum 6 to looped/cyclic peptides of protein M of SARS-CoV Urbani / Binding of serum 37 to looped/cyclic peptides of protein M of SARS-CoV Urbani / Binding of serum 6 to linear peptides of protein X3 of SARS-CoV Urbani / Binding of serum 37 to linear peptides of protein X3 of SARS-CoV Urbani / Binding of serum 37 to looped/cyclic peptides of protein X3 of SARS-CoV Urbani / Binding of serum 6 to linear peptides of protein X4 of SARS-CoV Urbani / Binding of serum 37 to linear peptides of protein X4 of SARS-CoV Urbani / Binding of serum 37 to looped/cyclic peptides of protein X4 of SARS-CoV Urbani / Binding of serum 6 to linear peptides of protein X5 of SARS-CoV Urbani / Binding of serum 37 to linear peptides of protein X5 of SARS-CoV Urbani / Binding of serum 37 to looped/cyclic peptides of protein X5 of SARS-CoV Urbani / Binding of serum 6 to linear peptides of protein N of SARS-CoV Urbani / Binding of serum 37 to linear peptides of protein N of SARS-CoV Urbani / Binding of serum 6 to linear peptide (PEPSCAN-ELISA) / Binding of serum 1a to looped/cyclic peptides of protein N of SARS-CoV Urbani / Binding of serum 1b to looped/cyclic peptides of protein N of SARS-CoV Urbani / Binding of serum 2 to looped/cyclic peptides of protein N of SARS-CoV Urbani / Binding of serum 6 to looped/cyclic peptides of protein N of SARS-CoV Urbani / Binding of serum 37 to looped/cyclic peptides of protein N of SARS-CoV Urbani / Binding of serum 62 to looped/cyclic peptides of protein N of SARS-CoV Urbani / Binding of serum London to looped/cyclic peptides of protein N of SARS-CoV Urbani / Binding of serum SARS-green to looped/cyclic peptides of protein N of SARS-CoV Urbani: unit not given here

| Sequence | Binding of antibody 03-018 to linear peptides of the N protein of SARS-CoV Urbani [1] | Binding of antibody 03-018 to looped/cyclic peptides of the N protein of SARS-CoV Urbani [1] | Binding of a rabbit serum to linear peptides of protein N of SARS-CoV Urbani (Rabbit serum linear peptides) [2] | Binding of a rabbit serum to looped/cyclic peptides of protein N of SARS-CoV Urbani (Rabbit serum looped peptides) [2] | Binding of Control Serum Blood-Bank to Looped peptides [3] | Binding of Control serum Blood-bank to linear peptides [3] | Binding of Control serum LUMC to linear peptides [3] | Binding of Control serum LUMC to looped peptides [3] | Binding of serum 1a to linear peptide (PEPSCAN-ELISA) [4] | Binding of serum 1a to looped/cyclic peptides of protein N of SARS-CoV Urbani [4] | Binding of serum 1b to linear peptide (PEPSCAN-ELISA) [4] | Binding of serum 1b to looped/cyclic peptides of protein N of SARS-CoV Urbani [4] | Binding of serum 2 to linear peptide (PEPSCAN-ELISA) [4] | Binding of serum 2 to looped/cyclic peptides of protein N of SARS-CoV Urbani [4] | Binding of serum 6 to looped/cyclic peptides of protein N of SARS-CoV Urbani [4] | Binding of serum 37 to looped/cyclic peptides of protein N of SARS-CoV Urbani [4] | Binding of serum 62 to looped/cyclic peptides of protein N of SARS-CoV Urbani [4] | Binding of serum London to looped/cyclic peptides of protein N of SARS-CoV Urbani [4] | Binding of serum SARS-green to looped/cyclic peptides of protein N of SARS-CoV Urbani [4] | Binding of serum SARS-yellow to looped/cyclic peptides of protein N of SARS-CoV Urbani [4] | other results |
| --- | --- | --- | --- | --- | --- | --- | --- | --- | --- | --- | --- | --- | --- | --- | --- | --- | --- | --- | --- | --- | --- |
| SGGGETALALLLLDR | 0.1 | 0.2 | 0.2 | 0.7 | 0.7 | 0.7 | 0.6 | 0.7 | 0.3 | 0.4 | 0.1 | 0.2 | 0.2 | 0.5 | 0.3 | 0.7 | 0.7 | 0.5 | 0.1 | 0.7 | Binding of serum 6 to linear peptide (PEPSCAN-ELISA) [4]: 0.2; Binding of serum 37 to linear peptide (PEPSCAN-ELISA) [4]: 0.7; Binding of serum 62 to linear peptide (PEPSCAN-ELISA) [4]: 0.7; Binding of serum London to linear peptide (PEPSCAN-ELISA) [4]: 0.4; Binding of serum SARS-green to linear peptide (PEPSCAN-ELISA) [4]: 0.1; Binding of serum SARS-yellow to linear peptide (PEPSCAN-ELISA) [4]: 0.5 |
| SGKGQQQQGQTVTKK | 0.1 | 0.2 | 0.2 | 0.4 | 0.6 | 1.0 | 1.1 | 0.6 | 0.3 | 0.3 | 0.1 | 0.2 | 0.2 | 0.3 | 0.3 | 0.6 | 0.5 | 0.4 | 0.2 | 0.3 | Binding of serum 6 to linear peptide (PEPSCAN-ELISA) [4]: 0.4; Binding of serum 37 to linear peptide (PEPSCAN-ELISA) [4]: 0.7; Binding of serum 62 to linear peptide (PEPSCAN-ELISA) [4]: 0.9; Binding of serum London to linear peptide (PEPSCAN-ELISA) [4]: 0.6; Binding of serum SARS-green to linear peptide (PEPSCAN-ELISA) [4]: 0.5; Binding of serum SARS-yellow to linear peptide (PEPSCAN-ELISA) [4]: 0.7 |
| SGPDDQIGYYRRATR | 0.1 | 0.3 | – | – | 0.8 | 0.8 | 0.7 | 0.9 | – | 0.4 | – | 0.3 | – | 0.5 | 0.4 | 0.8 | 0.7 | 0.5 | 0.5 | 0.7 | Recognition of the peptide by the rabbit serum [2]: recognized; Binding of serum 1a to linear peptides of protein N of SARS-CoV Urbani [4]: 0.2; Binding of serum 1b to linear peptides of protein N of SARS-CoV Urbani [4]: 0.1; Binding of serum 2 to linear peptides of protein N of SARS-CoV Urbani [4]: 0.2; Binding of serum 6 to linear peptides of protein N of SARS-CoV Urbani [4]: 0.2; Binding of serum 37 to linear peptides of protein N of SARS-CoV Urbani [4]: 0.6; Binding of serum 62 to linear peptides of protein N of SARS-CoV Urbani [4]: 0.6; Binding of serum London to linear peptides of protein N of SARS-CoV Urbani [4]: 0.4; Binding of serum SARS-green to linear peptides of protein N of SARS-CoV Urbani [4]: 0.4; Binding of serum SARS-yellow to linear peptides of protein N of SARS-CoV Urbani [4]: 0.6 |
| SGTWLTYHGAIKLDD | 0.1 | 0.2 | 0.1 | 0.5 | – | – | – | – | – | 0.8 | – | 0.5 | – | 0.7 | 0.4 | 1.0 | 1.2 | 0.8 | 1.8 | 1.6 | Control Serum Blood-Bank Looped peptides [3]: 1.0; Control serum Blood-bank linear peptides [3]: 0.5; Control serum LUMC linear peptides [3]: 0.5; Control serum LUMC looped peptides [3]: 0.8; Binding of serum 1a to linear peptides of protein N of SARS-CoV Urbani [4]: 0.2; Binding of serum 1b to linear peptides of protein N of SARS-CoV Urbani [4]: 0.1; Binding of serum 2 to linear peptides of protein N of SARS-CoV Urbani [4]: 0.1; Binding of serum 6 to linear peptides of protein N of SARS-CoV Urbani [4]: 0.1; Binding of serum 37 to linear peptides of protein N of SARS-CoV Urbani [4]: 0.7; Binding of serum 62 to linear peptides of protein N of SARS-CoV Urbani [4]: 0.5; Binding of serum London to linear peptides of protein N of SARS-CoV Urbani [4]: 0.6; Binding of serum SARS-green to linear peptides of protein N of SARS-CoV Urbani [4]: 0.5; Binding of serum SARS-yellow to linear peptides of protein N of SARS-CoV Urbani [4]: 0.6 |
| SKVSGKGQQQQGQTV | 0.1 | 0.2 | 0.1 | 0.6 | 0.8 | 0.6 | 0.7 | 0.8 | 0.2 | 0.4 | 0.1 | 0.2 | 0.3 | 0.7 | 0.4 | 0.6 | 0.6 | 0.8 | 0.5 | 0.6 | Binding of serum 6 to linear peptide (PEPSCAN-ELISA) [4]: 0.1; Binding of serum 37 to linear peptide (PEPSCAN-ELISA) [4]: 0.5; Binding of serum 62 to linear peptide (PEPSCAN-ELISA) [4]: 0.6; Binding of serum London to linear peptide (PEPSCAN-ELISA) [4]: 0.5; Binding of serum SARS-green to linear peptide (PEPSCAN-ELISA) [4]: 0.3; Binding of serum SARS-yellow to linear peptide (PEPSCAN-ELISA) [4]: 0.7 |
